Measurements as given in US4420488A, “Quaternary 1,1-diphenyl-4-pyrrolidinium-2-butyne salts, a process for their production and medicaments containing these compounds” (Ludwig Heumann & Co. GmbH, priority 1980, dated 1983).
Read-outs that look alike come from different tables or passages of the source.

Assays:
stress ulcer = assay: Anti-ulcerogenic effect, stress ulcer (Takagi, Okabe); format: in vivo; details: po, i.g.
Text: (§1) The following Table summarizes the results of pharmacological studies conducted with the compound according to the invention, 1,1-diphenyl-4-pyrrolidinyl-2-butyne-1-ol-N-methyl ammonium bromide, and with butynoline phosphate as the comparison substance.
effect i.g. i.g. Jap. J. Pharmac. 18,

[1] = test system: carbachol-induced gastric secretion; assay: Inhibition of the carbachol-induced gastric secretion (Heidenhain cat) (Engler, Fritschi); format: in vivo; details: Felis catus, po, i.g.
Text: as §1
0.3 0.3 Schmiedeberg's Arch.
(Heidenhain cat) Pharmacol. 297,

ACH = assay: Broncholysis (guinea pig), ACH (Konzett, Rossler); format: in vivo; details: Cavia porcellus, iv
Text: as §1
(§2) ACH 30 ACH 60 Rossler, R.,
(§3) Hi 500 Hi 1000 Arch. exp. Pharmacol.

Hi = assay: Broncholysis (guinea pig), Hi (Konzett, Rossler); format: in vivo; details: Cavia porcellus, iv
Text: as §1, §2, §3

[2] = molecular target: T1, Mee-ileum (Cavia porcellus); assay: Spasmolytic effect in vitro (Mee-ileum) (Van Rossum); details: ACH, read-out: Spasmolytic effect in vitro pA2 (ACH) (converted)
T1 construct: in vitro (Mee-ileum); from tissue; host or cells: isolated ileum ('Mee-ileum', read as guinea pig ileum)
Text: as §1
8.0 8.2 Arch. Int. Pharmaco-

[3] = Inhibition of the carbachol-induced secretion of saliva (rat), cholinolytic side effects (mod. Brown, Quinton); details: in vivo, po, i.g.
Text: (§4) As already mentioned, the compounds according to the invention show better pharmacological properties than the known butynoline phosphate, particularly in regard to the broncholytic and anti-ulcerogenic effect obtainable therewith. Tests relating to inhibition of the carbachol-induced secretion of saliva and mydriasis have shown that the compounds according to the invention have fewer side effects than the known butynoline phosphate.
as §1
i.g. i.g. Brown, D. M., Quinton,
24 9.8 R. M., Brit. J. Pharma-

[4] = Mydriasis, cholinolytic side effects (Pulewka); details: in vivo, po, i.g.
Text: as §4, §1
i.g. i.g. exp. Pharmacol.

[5] = in words; cited from earlier work

T1 sequence (H0W1Z3 1-590): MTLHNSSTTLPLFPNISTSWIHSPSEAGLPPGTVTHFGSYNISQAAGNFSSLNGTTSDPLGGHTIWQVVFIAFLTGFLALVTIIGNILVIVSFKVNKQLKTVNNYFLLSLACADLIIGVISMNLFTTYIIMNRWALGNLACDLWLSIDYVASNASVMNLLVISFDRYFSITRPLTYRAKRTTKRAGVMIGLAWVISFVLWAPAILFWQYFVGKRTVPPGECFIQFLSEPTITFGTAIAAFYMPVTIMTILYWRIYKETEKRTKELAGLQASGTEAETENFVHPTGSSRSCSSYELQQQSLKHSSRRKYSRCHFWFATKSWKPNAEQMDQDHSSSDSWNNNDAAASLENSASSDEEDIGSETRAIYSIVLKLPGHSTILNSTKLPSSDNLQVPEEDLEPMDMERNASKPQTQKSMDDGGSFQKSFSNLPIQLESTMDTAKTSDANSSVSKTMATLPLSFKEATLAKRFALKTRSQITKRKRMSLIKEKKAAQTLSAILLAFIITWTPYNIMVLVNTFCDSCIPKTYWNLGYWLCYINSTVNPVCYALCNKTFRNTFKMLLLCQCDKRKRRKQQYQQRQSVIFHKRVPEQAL

SMILES	ED50 (stress ulcer) [mg/kg]	ED50 ([1]; read-out: Inhibition of the carbachol-induced gastric secretion ED50) [mg/kg]	ED50 (ACH) [mg/kg]	ED50 (Hi) [mg/kg]	Kb [2] [nM]	ED50 [3] [mg/kg]	ED50 [4] [mg/kg]	ED50 ([1]; butynoline phosphate column, read-out: Inhibition of the carbachol-induced gastric secretion ED50 (ACH)) [mg/kg]	pharmacological activity (known) [5]
C[N+]1(CC#CC(O)(c2ccccc2)c2ccccc2)CCCC1 [1,1-diphenyl-4-pyrrolidinyl-2-butyne-1-ol-N-methyl ammonium bromide]	25	0.3	0.03	0.5	10	24	128	–	–
OC(C#CCN1CCCC1)(c1ccccc1)c1ccccc1 [Butynoline phosphate, phosphate of 1,1-diphenyl-4-pyrrolidino-2-butyne-1-ol]	150	–	0.06	1	6.31	9.8	16	0.3	anti-cholinergic spasmolytic and anti-ulcerogenic activity
